Each structure is given as a SMILES string. Values after ≈ are worked out from the molar mass of the structure shown. Like-named read-outs stand apart in the source and are kept apart here.

The values that follow come from patent EP1401829B1, “NOVEL HETEROCYCLIC ANTIBACTERIAL COMPOUNDS” (Microbiotix, Inc., priority 2001, dated 2002).

For one assay, the system named is MRSA 1123. The assay is described as follows: MIC against clinically relevant strains. The format is cell-based. Conditions: Staphylococcus aureus, methicillin resistant S. aureus strain. The method, then: (§1) The following methods were used to characterize representative compounds. Minimal Inhibitory Concentration (MIC) determinations. MIC values were determined in 96 well plates, with bacterial growth monitored at OD 600 nm in 200µl following an initial bacterial seeding at approximately 1x10^5 colony forming units (CFU)/ml. Each drug is evaluated at five concentrations, with five data points at each dilution. MIC values (µg/ml) were determined against actively growing cultures in Heart-Brain Infusion (HBI) medium. Cell growth in cultures supplemented with a test compound was calculated as a percent of control at OD 600 nm after 16 to 18 hours at 37°C. This plate format conserves test compound and provides precise, quantitative data with low standard deviation determinations. Polymerase IIIC (Pol IIIC) assay. DNA polymerase activity (or inhibition thereof) was measured in a 96-well plate format. B. subtilis Pol IIIC was isolated as described by Hammond and Brown (Protein Expr. Purif., 3: 65-70 (1992)). Each 25 µl assay contained 30 mM Tris, pH 7.5, 10 mM magnesium acetate, 4 mM dithiothreitol, 20% glycerol, with 25 µM dATP, dCTP, dGTP and 10 µM dTTP (^3H-labelled at 1.44 Ci/mmole) and 0.4 mg/ml activated calf thymus DNA as substrates, as described previously (see Barnes et al, op. cit). Assays were initiated by the addition of 0.025 to 0.06 units of enzyme 1 unit is the amount required to incorporate 250 pmoles of [^3H] dTMP in a standard assay), incubated for 10 minutes at 30°C and terminated by the addition of 200 µl of cold 10% trichloroacetic acid (TCA),10 mM sodium pyrophosphate. Precipitated labeled DNA was collected on glass fiber filter plates, washed, dried, and counted in a liquid scintillation counter. Determination of Ki values. DNA polymerase activity was measured in a 96-well plate format in the absence of dGTP or dATP, depending on the structure of the test compound. Each 25 µl assay contained 30 mM Tris, pH 7.5, 10 mM magnesium acetate, 4 mM dithiothreitol, 20% glycerol, with 25 µM dATP, dCTP, and 10 µM dTTP (^3H-labelled at 1.44 Ci/mmole) and 0.4 mg/ml activated calf thymus DNA as substrates, as described previously. To each well were added 2 µl of compound solution to give final concentrations ranging from 20 - 0.027 µg/ml in the assay. Assays were initiated by the addition of 0.025 to 0.06 units of enzyme (1 unit is the amount required to incorporate 250 pmoles of [^3H] dTMP in a standard assay), incubated for 10 minutes at 30 °C and terminated by the addition of 200 µl of cold 10% trichloroacetic acid, 10 mM sodium pyrophosphate. Precipitated labeled DNA was collected on glass fiber filter plates, washed, dried, and counted in a liquid scintillation counter. Ki is the concentration of test compound that reduces the control polymerase IIIC activity by 50 percent.
(§2) Compounds were also tested for antibacterial activity against certain clinically relevant strains, e.g., methicillin sensitive (MSSA) and methicillin resistant (MRSA) strains of Staphylococcus aureus.

For a further assay, the system named is MRSA1094. The assay is described as follows: MIC against clinically relevant strains. The format is cell-based. Conditions: Staphylococcus aureus; methicillin resistant S. aureus strain. The method, then: as §1, §2
The test system of the next assay is MRSA1132. The assay is described as follows: MIC against clinically relevant strains. Format: cell-based. Conditions: Staphylococcus aureus; methicillin resistant S. aureus strain. The protocol:
as §1, §2

A further assay deals with E. fecium. The assay is described as follows: Minimal Inhibitory Concentration (MIC) determination, 96 well plates. Format: cell-based, Enterococcus fecium. The settings on record: Enterococcus; HBI medium, 16 to 18 hours at 37°C; read-out: MIC (µg/ml) E. fecium. The gist of the method:
(§3)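 Broth growth in Heart-Brain Infusion medium, seeded at about 1x10^5 CFU/ml, 16 to 18 hours at 37°C. Growth read at OD 600 nm as percent of untreated control; five concentrations per drug, five data points each, MIC reported in µg/ml.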

In another assay the test system is S.aureus (Smith). The description is as above. Format: cell-based, Staphylococcus aureus. Conditions: Staphylococcus aureus. The gist of the method: as §3
The mark [1] stands for this setting: HBI medium, 16 to 18 hours at 37°C, read-out: MIC (µg/ml) S.aureus (Smith).
Setting [2] is: table of MSSA/MRSA strains, read-out: MIC (µg/ml) S. aureus (Smith).

Consider `CCc1cc(Nc2cc(=O)n(CCCCN3CCN(c4cc5c(cc4F)c(=O)c(C(=O)O)cn5C4CC4)CC3)c(=O)[nH]2)ccc1C` [Compound 2, 3-{4-[1-(1-cyclopropyl-3-carboxy-4-oxo-6-fluoro-7-quinolyl)-4-piperazinyl]butyl}-6-(3-ethyl-4-methylanilino)uracil], for which the MIC was 0.625 µg/mL (≈ 0.991 µM) with MRSA 1123; 0.625 µg/mL (≈ 0.991 µM) with MRSA1094; 0.625 µg/mL (≈ 0.991 µM) against MRSA1132; 1.25 µg/mL (≈ 1.98 µM) in the assay with E. fecium; 0.313 µg/mL (≈ 0.496 µM) in the assay with S.aureus (Smith) (setting [1]); 0.313 µg/mL (≈ 0.496 µM) in the assay on S.aureus (Smith) (setting [2]).
In the case of `CCc1cc(Nc2cc(=O)n(CCCCN3CCN(c4cc5c(cc4F)c(=O)c(C(=O)O)cn5C4CC4)CC3)c(=O)[nH]2)ccc1C.CS(=O)(=O)O` [Compound 10, 3-{4-[1-(1-cyclopropyl-3-carboxy-4-oxo-6-fluoro-7-quinolyl)-4-piperazinyl]butyl}-6-(3-ethyl-4-methylanilino)uracil methanesulfonate], the MIC in the assay on MRSA 1123 was 1.25 µg/mL; in the assay on MRSA1094, 1.25 µg/mL; against MRSA1132, 0.625 µg/mL; in the assay with E. fecium, 2.5 µg/mL; with S.aureus (Smith) (setting [1]), 0.625 µg/mL; in the assay on S.aureus (Smith) (setting [2]) it was 0.625 µg/mL.
Take `CCc1cc(Nc2cc(=O)n(CCCCN3CCN(c4c(F)cc5c(=O)c(C(=O)O)cn(C6CC6)c5c4F)CC3C)c(=O)[nH]2)ccc1C` (stereo not drawn) [Compound 70, 3-{4-[1-(1-cyclopropyl-3-carboxy-4-oxo-6,8-difluoro-7-quinolyl)-3-methyl-4-piperazinyl]butyl}-6-(3-ethyl-4-methylanilino)uracil]: the MIC in the assay with MRSA 1123 was determined as 0.94 µg/mL (≈ 1.42 µM); against MRSA1094 it was 0.94 µg/mL (≈ 1.42 µM); against MRSA1132, 0.31 µg/mL (≈ 0.468 µM); in the assay with E. fecium, 1.25 µg/mL (≈ 1.89 µM); in the assay with S.aureus (Smith) (setting [1]) it was 0.156 µg/mL (≈ 0.235 µM); with S.aureus (Smith) (setting [2]), 0.21 µg/mL (≈ 0.317 µM).
